We go through one compound from patent US11426371B2, “Compositions and methods for treating cancer” (University of Virginia Patent Foundation, priority 2017, dated 2022).

The structures appear in SMILES notation. Entries after “also recorded” stand apart in the source; their conditions may differ. Read-outs that look alike come from different tables or passages of the source.

For one experiment, the target named is T1, acid ceramidase (AC) (Homo sapiens, UniProt Q13510).
T1 sequence (Q13510 143-395 limits assumed): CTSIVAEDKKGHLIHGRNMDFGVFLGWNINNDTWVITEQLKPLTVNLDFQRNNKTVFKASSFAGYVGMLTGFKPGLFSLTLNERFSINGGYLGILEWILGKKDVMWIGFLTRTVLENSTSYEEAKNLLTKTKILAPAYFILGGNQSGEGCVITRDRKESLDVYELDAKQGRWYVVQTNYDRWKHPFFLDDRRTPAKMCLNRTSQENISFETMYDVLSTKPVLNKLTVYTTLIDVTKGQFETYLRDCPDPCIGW
T1 sequence (Q13510 22-142 limits assumed): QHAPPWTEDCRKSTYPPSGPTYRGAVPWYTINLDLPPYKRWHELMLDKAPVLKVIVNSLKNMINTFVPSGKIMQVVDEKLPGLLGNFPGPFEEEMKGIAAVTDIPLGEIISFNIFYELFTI
Put plainly: AC activity in AML cell lines, fluorogenic AC substrate. Type of experiment: cell-based. Also on record: endogenous in cells; host or cells: HL60/VCR, OCI-AML2, THP-1 human AML cell lines. As for the experimental part: Ceramide analog SACLAC (FIG. 1A) inhibits AC activity in representative human AML cell lines (FIG. 1B) HL60/VCR and (FIG. 1C) OCI-AML2 after 24 hours. Activity was assessed by incubation with a fluorogenic AC substrate. Published AC inhibitor LCL204 is included for comparison.
The ordinate represents AC Activity as percent of control and the abscissa represents SACLAC or LCL204 concentration.

The test system of experiment [1] is Human AML cell lines (n = 30). The experiment in a line: Cell viability, average over the panel of AML cell lines. The settings on record: mean over 30 human AML cell lines. Type of experiment: cell-based. Here is the method: (§1) Representative human AML cell lines (FIG. 2A; upper and lower panels) HL60/VCR and (FIG. 2B; upper and lower panels) OCI-AML2 were treated with SACLAC for 24 and 48 hours. Viability was assessed by MTS assay at 24 and 48 hours and apoptosis was assessed by flow cytometry at 48 hours. Upper panels represent % viability and lower panels indicate % apoptosis.
(§2) Two representative human-derived AML cell lines, HL60/VCR and OCI-AML2, are shown. These studies have been expanded to a large panel of additional human AML cell lines (n=30, Table 1).

The subject of another experiment is hAML cell lines. Put plainly: Time course studies of apoptosis and mitochondrial membrane depolarization. Type of experiment: cell-based, human.
For experiment [2], the system named is primary AML patient samples. The experiment in a line: Colony formation of primary AML patient cells. Format: cell-based, human. The settings on record: over several days. Here is the method:
Multiple primary patient (Pt) AML cells were treated with various doses of SACLAC and assayed for apoptosis at 48 hours and colony formation over several days. […] The ordinate represents Colonies (as % of control) and the abscissa represents the concentration of SACLAC (μM). Unt=untreated; DMSO=dimethyl sulfoxide vehicle control.
Further, effects on patient samples strongly support the potential for clinical relevance of SACLAC. […] Based on the data presented here, we propose that use of SACLAC for treatment of AML is novel and clinically promising.

The test system of experiment [3] is normal samples (PBMCs and/or CD34+ cells). The experiment in a line: Viability of normal samples, MTS and Cell Titer Glo (FIG. 4, Table 2). Type of experiment: cell-based. As to conditions: PBMC. As for the experimental part:
AML cell lines and normal samples (PBMCs and/or CD34+ cells) were treated for 24 hours with SACLAC (FIG. 4A-7 cell lines) and similar AC inhibitor SABRAC (2-bromo-N-((2S,3R)-1,3-dihydroxyoctadecan-2-yl)acetamide) (FIG. 4B-four cell lines). Viability was assessed by MTS and Cell Titer Glo viability assays. EC50 values (FIG. 4C) were graphed to visualize fold-change between AML and normal cells with treatment of each compound. […] Cells tested for SABRAC were HL60/VCR and OCI-AML2 AML cell lines and two normal PBMC control samples (PBMC1 and PBMC2). The same four cell types were tested for SACLAC, as well as the AML cell line THP-1 and two normal CD34+ cell control samples (CD34+1 and CD34+2).
Next, we tested the toxicity of SACLAC and a similar published AC inhibitor SABRAC^17 to normal hematopoietic cells to ensure that AML cells are selectively targeted by the compound (FIG. 4A). […] This degree of selectivity was unexpected but extremely important for potential clinical use. […] This remarkable increase in selectivity is a surprising discovery that greatly exceeds the predicted similarity in compound behavior that one may expect with a simple substitution of one halogen for another (Cl for Br).
In general terms: In ATP-based viability assays light output follows the ATP content of the culture.

Experiment [4] has as its system HL60/VCR and OCI-AML2 AML cell lines. Put plainly: Apoptosis in AML cell lines by flow cytometry. As to conditions: 48 hours, dose-dependent. Format: cell-based, human. As for the experimental part:
as §1, §2
(In general: In flow cytometry, cells or beads pass a laser one at a time.)

In a further experiment the test system is MV4-11 hAML xenograft. Put plainly: Human AML cell line mouse xenograft model. Type of experiment: in vivo. As to conditions: 5 mg/kg i.v. daily M to F for 18 days in β-HPCD, MV4-11-engrafted NSG mice, p<0.05. (A xenograft is tissue or cells of one species grown in another, often human tumour cells in immunodeficient mice.)
The next experiment has as its system Kasumi-1. Put plainly: Cell viability, panel of AML cell lines. Type of experiment: cell-based. As to conditions: Homo sapiens, Kasumi-1 cells. Here is the method:
as §1, §2

By EC50 is commonly meant the concentration at which the effect is half-maximal. As to `CCCCCCCCCCCCCCC[C@@H](O)[C@H](CO)NC(=O)CCl` [SACLAC, 2-chloro-N-((2S,3R)-1,3-dihydroxyoctadecan-2-yl)acetamide], on acid ceramidase (AC) (HL60/VCR and OCI-AML2, 24 hours), the AC activity result is “decreased AC activity at all tested doses; also recorded: nearly complete inhibition at nanomolar concentrations”. Moreover, at acid ceramidase (AC) (HL60/VCR, THP-1 and OCI-AML2 cells, 24 h), the “AC activity, compared with LCL204” value was “inhibited AC activity more potently than LCL204”. The EC50 in experiment [1] (24 h, read-out: EC50 24 h, Average) came to 2.3 µM; in experiment [1] (48 h, read-out: EC50 48 h, Average), 1.9 µM; in experiment [3] (24 h, mean of normal samples (PBMCs and/or CD34+ cells), 24 hours, read-out: EC50 Normal), 13.5 µM; in experiment [3] (24 h, normal controls at 24 h, mean ± spread, read-out: EC50, normal controls), 13.5 ± 7.1 µM; in experiment [3] (n=10, read-out: mean EC50, normal PMBC and CD34+ controls), 6 µM; in the experiment on Kasumi-1 (24 h, read-out: EC50 24 h) it was 0.8 µM. Further, in the experiment on Kasumi-1 (48 h, read-out: EC50 48 h), the half-maximal effective concentration (EC50) amounted to 0.8 µM. Further, the “mitochondrial membrane potential, time course” value in the experiment with hAML cell lines (concurrent with apoptosis induction) is reported as “mitochondrial membrane depolarization”. Besides, the “apoptosis, time course” value in the experiment with hAML cell lines (time course studies) is “apoptosis induction”. Besides, in experiment [2], the colony formation entry is recorded as “substantially reduced colony formation”. Further, the apoptosis entry in experiment [4] was “induced apoptosis”. In the experiment on MV4-11 hAML xenograft, the “leukemic burden (human CD45+ cells, YFP expression, percent double positive cells)” value was “reduced leukemic burden”.
